Measured values reported in patent US10301294B2, “Compounds for the treatment of tuberculosis” (priority 2013, dated 2019).

How the values were obtained:
[1] = test system: carbon-starved M. tuberculosis H37Rv; assay: Non-replicating IC90 determination by luciferase (carbon-starved cells); format: cell-based; settings: luciferase, None = inhibition did not reach 99%; for IC99: Mycobacterium tuberculosis, H37RV, 120 h, read-out: Against carbon starved non-replicating Mtb IC99 (uM, luciferase)
[2] = test system: replicating M. tuberculosis H37Rv; assay: microbe, parasite or virus in culture; format: cell-based; settings: None = inhibition did not reach 90%; for IC90: Mycobacterium tuberculosis, H37RV, read-out: Against Replicating Mtb IC90 (uM, GFP)

SMILES | Against carbon starved non-replicating Mtb IC99 (uM, luciferase) [1] | IC90 [2] [µM] | IC99 [1] [µM] | Against Replicating Mtb IC90 (uM, GFP) [2]
CSc1nnc(-c2ccccc2)o1 | None | > 250 | – | –
CCSc1nnc(-c2ccccc2)o1 | – | 200 | 250 | –
CCCCCCCCCCCCSc1nnc(-c2ccccc2)o1 | – | 125 | 62 | –
Fc1ccc(CCSc2nnc(-c3ccccc3)o2)cc1 | – | 250 | 250 | –
CCOC(=O)CSc1nnc(-c2ccccc2)o1 | – | 500 | 250 | –
c1ccc(-c2nnc(SCC3CC3)o2)cc1 | – | 125 | 31 | –
O=C(CSc1nnc(-c2ccccc2)o1)c1ccc(Br)cc1 | None | > 500 | – | –
Fc1ccc(CSc2nnc(-c3ccc(Cl)cc3)o2)cc1 | None | > 500 | – | –
Clc1ccc(-c2nnc(SCCC3OCCCO3)o2)cc1 | – | 62 | 8 | –
Fc1ccc(CSc2nnc(-c3cccnc3)o2)cc1 | – | > 500 | 62 | –
c1cncc(-c2nnc(SCCC3OCCCO3)o2)c1 | None | > 500 | – | –
Fc1ccc(CSc2nnc(-c3ccncc3)o2)cc1 | None | > 500 | – | –
c1cc(-c2nnc(SCCC3OCCCO3)o2)ccn1 | None | > 500 | – | –
Clc1ccc(-c2nnc(SCc3ccccn3)o2)cc1 | – | 62 | 16 | –
COCCSc1nnc(-c2ccc(Cl)cc2)o1 | – | 50 | 16 | –
c1ccc(CSc2nnc(-c3cccnc3)o2)nc1 | – | > 500 | 250 | –
COCCSc1nnc(-c2cccnc2)o1 | None | > 500 | – | –
c1ccc(CSc2nnc(-c3ccncc3)o2)nc1 | – | > 500 | 500 | –
COCCSc1nnc(-c2ccncc2)o1 | – | > 500 | 500 | –
CS(=O)(=O)c1nnc(-c2ccccc2)o1 | – | 250 | 62 | –
COCCS(=O)(=O)c1nnc(-c2ccc(Cl)cc2)o1 | – | > 500 | 250 | –

SMILES | Against carbon starved non-replicating Mtb IC99 (uM, luciferase) [1] | IC90 [2] [µM] | IC99 [1] [µM] | Against Replicating Mtb IC90 (uM, GFP) [2]
c1ccc(-c2nnc(NCc3ccccn3)o2)cc1 | None | > 500 | – | –
c1ccc(-c2nnc(OCc3ccccn3)o2)cc1 | None | > 500 | – | –
CS(=O)(=O)c1nnc(-c2ccc(Cl)cc2)o1 | – | 125 | 8 | –
Clc1ccc(-c2nnc(NCc3ccccn3)o2)cc1 | – | 500 | 125 | –
COCCNc1nnc(-c2ccc(Cl)cc2)o1 | None | > 500 | – | –
Clc1ccc(-c2nnc(OCc3ccccn3)o2)cc1 | – | 250 | 250 | –
CN1CCCCC1COc1nnc(-c2ccc(Cl)cc2)o1 (stereo not drawn) | – | > 500 | 500 | –
COCCOc1nnc(-c2ccc(Cl)cc2)o1 | – | > 500 | 250 | –
COCCSc1nnc(-c2ccc(C)cc2)o1 | – | 31 | 31 | –
Cc1ccc(-c2nnc(SCc3ccccn3)o2)cc1 | – | 31 | 16 | –
Cc1ccc(-c2nnc([S+]([O-])Cc3cccc[n+]3[O-])o2)cc1 (stereo not drawn) | – | 125 | 62 | –
COCCS(=O)(=O)c1nnc(-c2ccc(C)cc2)o1 | – | 31 | 8 | –
Cc1cccc(CSc2nnc(-c3ccc(Cl)cc3)o2)n1 | – | 62 | 31 | –
COc1ccc(-c2nnc(SCc3ccccn3)o2)cc1 | – | 62 | 16 | –
C#CCSc1nnc(-c2ccc(Cl)cc2)o1 | – | 31 | 16 | –
Oc1ccc(-c2nnc(SCc3ccccn3)o2)cc1 | – | 125 | 62 | –
OCC#CCSc1nnc(-c2ccc(Cl)cc2)o1 | – | 62 | 8 | –
CCOC(=O)COc1ccc(-c2nnc(SCc3ccccn3)o2)cc1 | – | – | 31 | None
COC(=O)c1ccc(CSc2nnc(-c3ccc(Cl)cc3)o2)nc1 | – | – | 16 | None
COc1ccccc1-c1nnc(SCc2ccccn2)o1 | – | – | 125 | None
Oc1cccc(-c2nnc(SCc3ccccn3)o2)c1 | – | 125 | 62 | –
